# Experimental data reported in patent US5411960A, “Substituted pyrroloanthracenes and -diones” (Bayer Aktiengesellschaft, priority 1993, dated 1995).
# System: human T cells (monocyte-free)
# Assay: Inhibition of 5-HT-dependent T cell proliferation
# Format: cell-based
# Conditions: inhibition of T cell proliferation stimulated with PWM (1:200) and 5-HT (100 μm), 3H-thymidine incorporation, 7 days, test range 33 μM-0.1 μM
# Text: The in vitro activity of the compounds according to the invention results from their capability to inhibit T cell proliferation, which is previously stimulated by serotonin.
# Peripheral mononuclear blood cells (PBMC) are obtained from the buffy coat of the blood of healthy subjects. After isolation by means of isolymph gradients (Pharmacia), the PBMC are washed twice and used directly. Purified T cells are obtained by E rosette formation with sheep erythrocytes [cf. Blue, M. -L., J. F. Daley, H. Levine, K. A. Craig and S. F. Schlossmann, 1986, Biosynthesis and surface expression of T8 by peripheral blood T4+ cells in vitro, J. Immunol. 137, 1202]. Monocytes are partially removed by adhesion to tissue culture plates or flasks. PBMC, T cells or purified T cells (depleted in monocytes) at 5×10^5 /ml, 100 µl/well are cultured in RPMI 1640 medium with 10% fetal calf serum (GIBCO) and L-glutamine in 96-well microculture plates (Becton-Dickinson) under a 5% CO2 atmosphere at 37° C. for 7 days. The cultures are treated with 1 μCi of ^3 H-thymidine for 6 h on the 7th day and collected on filter paper, and the incorporated radioactivity is determined by means of liquid scintillation counting.
# The test substances are dissolved in 10 mM HCl in order to achieve a final concentration of 1 mM in each case. The compounds are diluted serially 3× with medium in order to obtain a final concentration between 33 μM-0.1 μM. PWM (1:200, pokeweed mitogen) and 5-HT (100 μm, serotonin), which contain the test substances, are added to monocyte-free human T cells. The positive control (maximum proliferation ) is obtained from cultures containing T cells, PWM and 5-HT. The negative control (minimal proliferation) is obtained from cultures containing T cells and PWM without 5-HT. The inhibitory activity of the test substances is expressed as the IC50 in μM. (see also WO 92/04015)
row,SMILES,IC50 [µM]
1,"O=C1C2C3c4ccccc4C(c4ccccc43)C2C(=O)N1CCCN1CC2C3C=CC(C4CC34)C2C1 (centres unmarked) [Example 1, 13-[3-(4,6-Etheno-perhydro-cycloprop[f]isoindol-2-yl)propyl]-9,10-dihydro-9,10-[3', 4']-pyrroloanthracene-12,14[11H,15H) -dione]",5
2,O=C1C2C3c4ccccc4C(c4ccccc43)C2C(=O)N1CCCN1CC2CCN(c3ccccc3)C2C1 (centres unmarked) [Example 2],5
3,O=C1C2C3c4ccccc4C(c4ccccc43)C2C(=O)N1CCCN1CC2CC=CC(CO)C2C1 (centres unmarked) [Example 3],30
4,O=C1C2C3c4ccccc4C(c4ccccc43)C2C(=O)N1CCCN1CC[Si](c2ccccc2)(c2ccccc2)CC1 (centres unmarked) [Example 4],20
5,O=C1C2C3c4ccccc4C(c4ccccc43)C2C(=O)N1CCCN1CC2C3C=CC(C4CCC34)C2C1 (centres unmarked) [Example 5],4
6,c1ccc(CN2CCOC3CN(CCCN4CC5C6c7ccccc7C(c7ccccc76)C5C4)CC32)cc1 (centres unmarked) [Example 9],20
7,c1ccc(N2CCC3CN(CCCN4CC5C6c7ccccc7C(c7ccccc76)C5C4)CC32)cc1 (centres unmarked) [Example 10],1
8,C1=CC2C3CCC3C1C1CN(CCCN3CC4C5c6ccccc6C(c6ccccc65)C4C3)CC21 (centres unmarked) [Example 11],1
